Results: patent US11111245B2, “Derivatives of N-cycloalkyl/heterocycloalkyl-4-(imidazo[1,2-a]pyridine)pyrimidin-2-amine as therapeutic agents” (Aucentra Therapeutics Pty Ltd, priority 2017, dated 2021)

Assays:
CDKs and other kinases [1] = target: T1, CDKs and other kinases (Homo sapiens, UniProt P24941); experiment: Radiometric kinase assay (Eurofins Pharma Discovery or Reaction Biology Corporation Kinase Profiler); format: biochemical; conditions: CDK2A; for Ki: read-out: CDK inhibition, Ki (μM) CDK2A; for remaining activity at 10 µM: compound at 10 μM, read-out: residual activity (%) at 10 μM CDK2A
T1 construct: other: CDK2A; residual activity (%) at 10 μM CDK2A; compound at 10 μM
How it was run: (§1)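 Other CDKs and further kinases were profiled externally by radiometric assay. In-house ADP Glo assays covered CDK4/D1 and CDK6/D3 (RB-CTF substrate, pH 7.5 Tris buffer with MgCl2, DTT, BSA) and CDK9/T1 (RBER-IRStide substrate), 40 min at 37° C.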

CDKs and other kinases [2] = target: T2, CDKs and other kinases (Homo sapiens, UniProt P06493); experiment: as above; format: biochemical; conditions: CDK1B; for Ki: read-out: CDK inhibition, Ki (μM) CDK1B; for remaining activity at 10 µM: compound at 10 μM, read-out: residual activity (%) at 10 μM CDK1B
T2 construct: other: CDK1B; residual activity (%) at 10 μM CDK1B; compound at 10 μM
T2 sequence (P06493 whole entry): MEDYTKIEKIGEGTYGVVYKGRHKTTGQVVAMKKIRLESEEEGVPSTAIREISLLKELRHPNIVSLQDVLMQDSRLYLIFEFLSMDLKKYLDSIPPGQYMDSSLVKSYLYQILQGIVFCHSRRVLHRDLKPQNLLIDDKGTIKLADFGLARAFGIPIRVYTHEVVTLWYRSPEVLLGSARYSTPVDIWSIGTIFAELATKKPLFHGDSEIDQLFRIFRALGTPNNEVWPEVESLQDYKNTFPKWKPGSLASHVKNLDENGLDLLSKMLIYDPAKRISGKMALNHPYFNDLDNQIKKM
How it was run: as §1

CDKs and other kinases [3] = target: T3, CDKs and other kinases (Homo sapiens, UniProt P50613); experiment: as above; format: biochemical; conditions: CDK7H; for Ki: read-out: CDK inhibition, Ki (μM) CDK7H; for remaining activity at 10 µM: compound at 10 μM, read-out: residual activity (%) at 10 μM CDK7H
T3 construct: other: CDK7H; residual activity (%) at 10 μM CDK7H; compound at 10 μM
T3 sequence (P50613 whole entry): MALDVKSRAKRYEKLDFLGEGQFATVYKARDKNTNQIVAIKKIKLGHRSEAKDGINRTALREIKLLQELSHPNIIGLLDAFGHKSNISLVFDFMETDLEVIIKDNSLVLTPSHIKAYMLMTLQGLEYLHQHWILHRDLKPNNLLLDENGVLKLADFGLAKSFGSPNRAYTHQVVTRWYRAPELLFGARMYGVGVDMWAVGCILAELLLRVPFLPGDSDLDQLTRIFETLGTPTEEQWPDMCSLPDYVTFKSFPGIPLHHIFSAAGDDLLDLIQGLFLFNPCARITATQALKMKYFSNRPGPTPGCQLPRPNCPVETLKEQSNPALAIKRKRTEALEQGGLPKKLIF
How it was run: as §1

leukemia cell lines = experiment: Resazurin cell viability assay on leukemia cell lines (72 h growth inhibition, GI50); format: cell-based; conditions: Homo sapiens, MV4-11 cells
How it was run: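 Standard published viability protocols apply here, MTT-based for solid tumour cells and resazurin-based for leukaemia cells, with 50% growth inhibition concentrations derived through non-linear regression.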

CDK9/T1 = CDK9/T1 (Homo sapiens, UniProt P50750); experiment: ADP Glo Kinase assay CDK9/T1; format: biochemical; conditions: CDK9T1; read-out: CDK inhibition, Ki (μM) CDK9T1
Chain of CDK9/T1 (P50750 whole entry): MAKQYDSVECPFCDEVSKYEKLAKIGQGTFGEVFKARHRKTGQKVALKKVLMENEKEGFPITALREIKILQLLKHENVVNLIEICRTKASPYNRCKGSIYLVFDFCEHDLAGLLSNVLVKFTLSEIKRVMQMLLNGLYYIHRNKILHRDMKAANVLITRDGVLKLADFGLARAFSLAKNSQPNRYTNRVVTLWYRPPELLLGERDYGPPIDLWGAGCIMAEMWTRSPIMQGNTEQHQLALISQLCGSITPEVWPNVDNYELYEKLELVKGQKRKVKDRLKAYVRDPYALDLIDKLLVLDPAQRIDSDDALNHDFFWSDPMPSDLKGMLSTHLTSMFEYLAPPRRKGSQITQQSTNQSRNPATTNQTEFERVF
Chain of CDK9/T1 (O60563 whole entry partner): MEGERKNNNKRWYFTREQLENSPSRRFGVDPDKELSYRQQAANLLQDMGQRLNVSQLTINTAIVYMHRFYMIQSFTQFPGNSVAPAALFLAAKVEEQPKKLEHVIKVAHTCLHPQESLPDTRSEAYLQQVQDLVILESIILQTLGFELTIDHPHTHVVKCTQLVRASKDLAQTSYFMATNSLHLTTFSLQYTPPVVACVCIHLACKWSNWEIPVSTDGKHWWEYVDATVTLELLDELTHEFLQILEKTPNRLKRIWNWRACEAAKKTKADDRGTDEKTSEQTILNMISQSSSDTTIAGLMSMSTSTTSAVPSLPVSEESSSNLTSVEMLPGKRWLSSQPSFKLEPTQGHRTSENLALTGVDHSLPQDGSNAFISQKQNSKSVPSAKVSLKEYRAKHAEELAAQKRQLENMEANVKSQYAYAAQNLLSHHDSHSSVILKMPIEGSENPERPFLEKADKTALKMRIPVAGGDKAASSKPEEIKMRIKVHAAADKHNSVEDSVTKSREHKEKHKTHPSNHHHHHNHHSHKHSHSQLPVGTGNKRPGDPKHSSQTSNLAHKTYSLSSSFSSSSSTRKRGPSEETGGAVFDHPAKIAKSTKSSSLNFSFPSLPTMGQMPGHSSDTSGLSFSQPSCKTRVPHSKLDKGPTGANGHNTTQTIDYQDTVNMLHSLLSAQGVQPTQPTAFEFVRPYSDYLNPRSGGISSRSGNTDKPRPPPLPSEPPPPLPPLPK
How it was run: as §1

CDK6/D3 = CDK6/D3 (Homo sapiens, UniProt Q00534); experiment: ADP Glo Kinase assay CDK6/D3; format: biochemical; conditions: CDK6D3; for remaining activity at 10 µM: compound at 10 μM, read-out: residual activity (%) at 10 μM CDK6D3; for Ki: read-out: CDK inhibition, Ki (μM) CDK6D3
Chain of CDK6/D3 (Q00534 whole entry): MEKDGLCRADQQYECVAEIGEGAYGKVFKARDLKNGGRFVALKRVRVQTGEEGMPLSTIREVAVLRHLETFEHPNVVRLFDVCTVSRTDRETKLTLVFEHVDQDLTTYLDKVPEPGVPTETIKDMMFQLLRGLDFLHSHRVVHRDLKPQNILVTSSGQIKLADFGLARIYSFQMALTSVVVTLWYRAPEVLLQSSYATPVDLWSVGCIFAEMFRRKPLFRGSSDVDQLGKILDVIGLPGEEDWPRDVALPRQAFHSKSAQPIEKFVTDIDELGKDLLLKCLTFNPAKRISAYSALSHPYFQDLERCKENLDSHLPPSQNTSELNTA
Chain of CDK6/D3 (P30281 whole entry partner): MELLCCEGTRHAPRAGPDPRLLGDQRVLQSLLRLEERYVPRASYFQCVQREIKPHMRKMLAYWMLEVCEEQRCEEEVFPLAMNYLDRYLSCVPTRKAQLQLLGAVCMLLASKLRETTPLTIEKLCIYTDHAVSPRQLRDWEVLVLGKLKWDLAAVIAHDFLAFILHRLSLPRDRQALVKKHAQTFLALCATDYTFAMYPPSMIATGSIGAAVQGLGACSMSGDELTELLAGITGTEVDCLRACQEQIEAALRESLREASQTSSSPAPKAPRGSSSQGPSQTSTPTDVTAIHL
How it was run: as §1

CDK4/D1 = CDK4/D1 (Homo sapiens, UniProt P11802); experiment: ADP Glo Kinase assay CDK4/D1; format: biochemical; conditions: CDK4D1; for remaining activity at 10 µM: compound at 10 μM, read-out: residual activity (%) at 10 μM CDK4D1; for Ki: read-out: CDK inhibition, Ki (μM) CDK4D1
Chain of CDK4/D1 (P11802 whole entry): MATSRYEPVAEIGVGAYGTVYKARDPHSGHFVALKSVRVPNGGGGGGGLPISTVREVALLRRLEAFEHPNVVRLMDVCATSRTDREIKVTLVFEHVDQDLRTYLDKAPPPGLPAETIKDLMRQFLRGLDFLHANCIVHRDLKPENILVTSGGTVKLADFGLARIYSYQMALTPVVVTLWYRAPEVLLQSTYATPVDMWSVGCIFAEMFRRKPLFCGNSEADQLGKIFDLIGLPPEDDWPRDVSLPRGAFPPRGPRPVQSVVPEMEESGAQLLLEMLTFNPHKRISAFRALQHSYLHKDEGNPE
Chain of CDK4/D1 (P24385 whole entry partner): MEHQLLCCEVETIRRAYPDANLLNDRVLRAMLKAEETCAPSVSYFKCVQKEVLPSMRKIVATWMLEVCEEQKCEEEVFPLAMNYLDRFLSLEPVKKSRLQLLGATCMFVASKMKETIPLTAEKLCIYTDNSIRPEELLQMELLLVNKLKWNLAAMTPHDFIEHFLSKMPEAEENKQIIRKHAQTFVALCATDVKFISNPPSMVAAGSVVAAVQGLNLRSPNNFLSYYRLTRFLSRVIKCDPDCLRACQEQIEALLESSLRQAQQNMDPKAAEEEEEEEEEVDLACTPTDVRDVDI
How it was run: as §1

SMILES	Ki (CDKs and other kinases [1]) [µM]	Ki (CDKs and other kinases [2]) [µM]	Ki (CDKs and other kinases [3]) [µM]	GI50 (leukemia cell lines) [µM]	Ki (CDK9/T1) [µM]	remaining activity at 10 µM (CDK6/D3) [%]	remaining activity at 10 µM (CDK4/D1) [%]	remaining activity at 10 µM (CDKs and other kinases [1]) [%]	remaining activity at 10 µM (CDKs and other kinases [2]) [%]	remaining activity at 10 µM (CDKs and other kinases [3]) [%]	Ki (CDK4/D1) [µM]	Ki (CDK6/D3) [µM]
Cc1cnc(NC2CCCC(N)C2)nc1-c1cnc2ccc(-c3ccccc3)cn12 (centres unmarked) [Compound 94, N^1-(5-Methyl-4-(6-phenylimidazo[1,2-a]pyridin-3-yl)pyrimidin-2-yl)cyclohexane-1,3-diamine]	–	–	–	0.748 ± 0.063	0.388	45	25	12	20	10	–	–
Cc1cnc(N[C@H]2CC[C@H](N)CC2)nc1-c1cnc2ccc(NC(=O)c3ccc(F)cc3)cn12 [Compound 72, N-(3-(2-(((1r,4r)-4-Aminocyclohexyl)amino)-5-methylpyrimidin-4-yl)imidazo[1,2-a]pyridin-6-yl)-4-fluorobenzamide]	–	–	–	1.46 ± 0.476	0.194	85	77	52	69	57	–	–
CC(=O)NC1CCC(Nc2ncc(C)c(-c3cnc4ccc(Nc5cncnc5)cn34)n2)CC1 (centres unmarked) [Compound 113, N-(4-((5-Methyl-4-(6-(pyrimidin-5-ylamino)imidazo [1,2-a]pyridin-3-yl)pyrimidin-2-yl)amino)cyclohexyl) acetamide]	0.45	0.82	2.59	> 10	1.01	39	28	–	–	–	–	–
Cc1cncc(Nc2ccc3ncc(-c4nc(N[C@H]5CC[C@H](N)CC5)ncc4C)n3c2)c1 [Compound 64, (1r,4r)-N^1-(5-Methyl-4-(6-((5-methylpyridin-3-yl)amino)imidazo[1,2-a]pyridin-3-yl)pyrimidin-2-yl)cyclohexane-1,4-diamine]	0.59	2.37	1.44	0.155 ± 0.054	0.016	38	1	–	–	–	–	–
Cc1cnc(NC2CCC(N(C)C)CC2)nc1-c1cnc2ccc(Nc3cccnc3)cn12 (centres unmarked) [Compound 98, N^1,N^1-Dimethyl-N^4-(5-Methyl-4-(6-(pyridin-3-ylamino)imidazo[1,2-a]pyridin-3-yl)pyrimidin-2-yl)cyclohexane-1,4-diamine]	0.31	1.5	1.67	0.153 ± 0.021	0.004	–	–	–	–	–	0.78	0.53
Cc1cnc(N[C@H]2CC[C@H](N)CC2)nc1-c1cnc2ccc(Nc3cnccn3)cn12 [Compound 70, (1r,4r)-N^1-(5-Methyl-4-(6-(pyrazin-2-ylamino)imidazo [1,2-a]pyridin-3-yl)pyrimidin-2-yl)cyclohexane-1,4-diamine]	1.42	4.32	3.28	0.212 ± 0.104	0.62	70	31	–	–	–	–	–
Cc1cnc(NC2CCCC(N)C2)nc1-c1cnc2ccc(Nc3cncnc3)cn12 (centres unmarked) [Compound 96, N^1-(5-Methyl-4-(6-(pyrimidin-5-ylamino)imidazo[1,2-a]pyridin-3-yl)pyrimidin-2-yl)cyclohexane-1,3-diamine]	–	–	–	> 10	0.193	90	49	37	63	63	–	–

These reach a lower GI50 (leukemia cell lines). Values come first.

Ki (CDKs and other kinases [1]) [µM]	Ki (CDKs and other kinases [2]) [µM]	Ki (CDKs and other kinases [3]) [µM]	GI50 (leukemia cell lines) [µM]	Ki (CDK9/T1) [µM]	remaining activity at 10 µM (CDK6/D3) [%]	remaining activity at 10 µM (CDK4/D1) [%]	remaining activity at 10 µM (CDKs and other kinases [1]) [%]	remaining activity at 10 µM (CDKs and other kinases [2]) [%]	remaining activity at 10 µM (CDKs and other kinases [3]) [%]	Ki (CDK4/D1) [µM]	Ki (CDK6/D3) [µM]	SMILES
1.83	3.57	2.73	0.101 ± 0.039	0.051	45	17	–	–	–	–	–	Cc1cnc(N[C@H]2CC[C@H](N)CC2)nc1-c1cnc2ccc(-c3cccnc3)cn12 [Compound 29, (1r,4r)-N^1-(5-Methyl-4-(6-(pyridin-3-yl)imidazo[1,2-a]pyridin-3-yl)pyrimidin-2-yl)cyclohexane-1,4-diamine]
0.91	2.56	0.58	0.052 ± 0.011	0.065	80	0	–	–	–	–	–	N[C@H]1CC[C@H](Nc2ncc(Cl)c(-c3cnc4ccc(-c5cncnc5)cn34)n2)CC1 [Compound 38, (1r,4r)-N^1-(5-Chloro-4-(6-(pyrimidin-5-yl)imidazo[1,2-a]pyridin-3-yl)pyrimidin-2-yl)cyclohexane-1,4-diamine]
–	–	–	0.083 ± 0.035	0.49	89	17	63	79	37	–	–	Cc1cnc(N[C@H]2CC[C@H](N)CC2)nc1-c1cnc2ccc(-c3ccc(N4CCOCC4)nc3)cn12 [Compound 61, (1r,4r)-N^1-(5-Methyl-4-(6-(6-morpholinopyridin-3-yl)imidazo[1,2-a]pyridin-3-yl)pyrimidin-2-yl)cyclohexane-1,4-diamine]
0.018	0.077	0.026	0.046 ± 0.005	0.006	23	–	–	–	–	0.025	–	N[C@H]1CC[C@H](Nc2ncc(F)c(-c3cnc4ccccn34)n2)CC1 [Compound 1, (1r,4r)-N^1-(5-Fluoro-4-(imidazo[1,2-a]pyridin-3-yl)pyrimidin-2-yl)cyclohexane-1,4-diamine]
0.0004	0.004	0.001	< 0.001	0.062	26	1	–	–	–	–	–	CS(=O)(=O)N[C@H]1CC[C@H](Nc2ncc(Cl)c(-c3cnc4ccc(Br)cn34)n2)CC1 [Compound 17, N-((1r,4r)-4-((4-(6-Bromoimidazo[1,2-a]pyridin-3-yl)-5-chloropyrimidin-2-yl)amino)cyclohexyl) methanesulfonamide]
–	–	–	0.067 ± 0.014	0.069	39	45	31	47	17	–	–	COc1cccc(-c2ccc3ncc(-c4nc(N[C@H]5CC[C@H](N)CC5)ncc4C)n3c2)c1 [Compound 57, (1r,4r)-N^1-(4-(6-(3-Methoxyphenyl)imidazo[1,2-a]pyridin-3-yl)-5-methylpyrimidin-2-yl)cyclohexane-1,4-diamine]
0.09	2.16	2.24	0.095 ± 0.031	0.005	–	–	–	–	–	2.8	1.05	Cc1cnc(N[C@H]2CC[C@H](N)CC2)nc1-c1cnc2ccc(Nc3cccnc3)cn12 [Compound 34, (1r,4r)-N^1-(5-Methyl-4-(6-(pyridin-3-ylamino)imidazo [1,2-a]pyridin-3-yl)pyrimidin-2-yl)cyclohexane-1,4-diamine]
–	–	–	0.095 ± 0.031	0.054	29	38	6	18	18	–	–	Cc1cnc(N[C@H]2CC[C@H](N)CC2)nc1-c1cnc2ccc(-c3ccoc3)cn12 [Compound 63, (1r,4r)-N^1-(4-(6-(Furan-3-yl)imidazo[1,2-a]pyridin-3-yl)-5-methylpyrimidin-2-yl)cyclohexane-1,4-diamine]
–	–	–	0.059 ± 0.019	0.109	100	73	22	36	85	–	–	Cc1cnc(N[C@]23C[C@@]4(C)C[C@](C)(C[C@](O)(C4)C2)C3)nc1-c1cnc2ccc(Nc3cncnc3)cn12 [Compound 102, (1s,3R,5S,7r)-3,5-Dimethyl-7-((5-methyl-4-(6-(pyrimidin-5-ylamino)imidazo[1,2-a]pyridin-3-yl)pyrimidin-2-yl)amino)adamantan-1-ol]
0.63	> 10	5.39	0.066 ± 0.014	0.094	36	16	–	–	–	–	–	Cc1cnc(N[C@H]2CC[C@H](N)CC2)nc1-c1cnc2ccc(NCc3ccc(F)cc3)cn12 [Compound 32, (1r,4r)-N^1-(4-(6-((4-Fluorobenzyl)amino)imidazo[1,2-a]pyridin-3-yl)-5-methylpyrimidin-2-yl)cyclohexane-1,4-diamine]
